≈ marks a conversion by molar mass, not a printed value.
Columns and labels:
[1] = system: T. gondii RH-YFP tachyzoites; experiment: In vitro challenge assay, RH strain YFP tachyzoites in HFF; assay type: cell-based; conditions: Toxoplasma gondii; RH-YFP tachyzoites in HFF; Figure 1A; read-out: Tachy IC50
Protocol: RH strain YFP Tachyzoites. Protocol was adapted from Fomovska et al. ([2012a],[b]) for HFF. HFF were cultured on a flat, clear-bottomed, black 96-well plate to 90–100% confluence. IMDM (1x, [+] glutamine, [+] 25 mM HEPES, [+] Phenol red, 10% FBS [Gibco, Denmark]) was removed and replaced with IMDM-C(1x, [+] glutamine, [+] 25 mM HEPES, [–] Phenol red, 10% FBS)[Gibco, Denmark]). RH-YFP, lysed from host cells by passing twice through a 27-gauge needle, were counted, then diluted to 32,000/mL in IMDM-C. HFF were infected with 3200 RH-YFP, then returned to 37°C, CO2 (5%) incubator for 1–2 h for infection. Various concentrations of the compounds in 20 μL IMDM-C were added to each well. There were triplicates for each condition. Controls were pyrimethamine/sulfadiazine (standard treatment), 0.1% DMSO only, HFF only, and untreated cultures of HFF infected with 2-fold dilutions of YFP expressing parasites (called “YFP gradient” to establish amount of color from known numbers of YFP expressing parasites). Cells were incubated at 37°C for 72 h. Plates were read using a fluorimeter (Synergy H4 Hybrid Reader, BioTek) to ascertain amount of relative fluorescence units (RFU) YFP, to measure parasite burden after treatment. Data were collected using Gen5 software with IC50 calculated by graphical analysis in Excel.
An initial screening assay of 10 μM, 1 μM, 100 nM, and 10 nM of the compounds was performed. Compounds were not considered effective or pursued for further analysis if there was no inhibition of tachyzoites at 1 μM. If compounds were effective at 1 μM, another experiment was performed to assess effect at 1 μM, 500, 250, 125, 62.5, and 31.25 nM.

[2] = system: T. gondii EGS strain bradyzoites; experiment: In vitro challenge assay for EGS strain bradyzoites; assay type: cell-based, Toxoplasma gondii; conditions: Toxoplasma gondii; EGS strain in HFF; Figure 1A; read-out: Brady IC50
Protocol: HFF cells were grown in IMDM on removable, sterile glass cover slips in the bottom of a clear, flat-bottomed 24-well plate. Cultures were infected with 3 × 10^4 EGS strain parasites per well, in 0.5 mL media. The plate was returned to incubator at 37°C overnight. The following day, the media was removed. Colorless IMDM and compounds were added to make various concentrations of the drug. Total volume was 0.5 mL. Two wells had media only, as a control. Plates were returned to the 37°C incubator for 72 h, checked once each 24 h. If tachyzoites were visible in the control before 72 h, cells were fixed and stained. Cells were fixed using 4% paraformaldehyde and stained with Fluorescein-labeled Dolichos Biflorus Agglutinin, DAPI, and antibody to BAG1. Disks were removed, mounted on glass slides, and visualized using microscopy (Nikon Tl7). Slides were scanned using a CRi Panoramic Scan Whole Slide Scanner and viewed using Panoramic Viewer Software. Effects of compounds were quantitated by counting cysts in controls and treated cultures. Dolichos staining delimited structures and single organisms that remained were counted in a representative field of view. This was then multiplied by a factor determined by the total area of the cover slip in order to estimate the number of cysts and organisms in each condition. When the following forms were observed: “true cysts” with a dolichos-staining wall, “pseudocysts” or tight clusters of parasites, and small organisms, if there were fewer than four parasites visible in a cluster, organisms were counted individually (as “small organisms”). The entire scanned coverslip with all fields was also reviewed by 3 observers to confirm consistency.

[3] = Metabolic stability in mouse liver microsomes; conditions: mouse, liver microsomes, T1/2 (M), predicted half-life in mouse liver microsomes; Figure 1A; min in Figure 2E for the same values
Protocol: (§1) The effects of changing R1 as 7-Et, 7-Me, 6-CF3, or 6-Me on activity against RH strain tachyzoites, kinetic solubility, and metabolic stability were compared. Kinetic solubility and metabolic stability in human or murine liver microsomes were measured. The hERG (human Ether-à-go-go-Related) liability was also determined. The hERG gene (KCNH2) encodes a protein Kv11.1, the alpha subunit of a potassium ion channel. This channel conducts the rapid component of the delayed rectifier potassium current, IKr, which is critical for repolarization of cardiac action potentials. A reduction in hERG currents from adverse drug effects can lead to long QT interval syndromes. These syndromes are characterized by action potential prolongation, lengthening of the QT interval on surface EKG, and an increased risk for “torsade de pointes” arrhythmias and sudden death. The MDCK-MDR1 Permeability Assay was also performed. MDCK-MDR1 refers to the ability of a compound to permeate across membranes of MDCK-MDR1 (Madin Darby canine kidney [MDCK] cells with the MDR1 gene [ABCB1], the gene encoding for the efflux protein, P-glycoprotein (P-gp)) in vitro. Assessing transport in both directions (apical to basolateral and basolateral to apical) across the cell monolayers enables an efflux ratio to be determined. […] This provides a prediction of blood brain barrier (BBB) penetration potential/permeability and efflux ratio. Effect in CACO-2 (Colon Adenocarcinoma cells) as a permeability assay and on cytochrome P450 (CYP 450) were also determined. CYP enzymes catalyze oxidative biotransformation (phase 1 metabolism) of most drugs. CYP enzymes, bind to membranes in a cell (cyto) and contain a heme pigment (chrome and P) that absorbs light at a wavelength of 450 nm when exposed to carbon monoxide. Metabolism of a drug by CYP enzymes is a major source of variability in drug effect. These were measured by Chem Partners. The relative effect on HFF and parasite enzymes also were compared.
(§2) In vitro absorption, distribution, metabolism, excretion, and toxicity (ADMET) analyses of the THQ compounds were outsourced to ChemPartner Shanghai Ltd. ELQ-271 (synthesized in-house) was tested as a comparison.

[4] = Kinetic solubility in PBS pH 7.4 (Chem Partners); conditions: PBS; for solubility kinetic: pH 7.4, aqueous buffer, kinetic from dmso stock
Protocol: as §1

[5] = Metabolic stability in human liver microsomes; conditions: human, liver microsomes
Protocol: as §1, §2

Structure (SMILES) | IC50 [1] | IC50 [2] | half-life [3] | solubility kinetic [4] | half-life [5] | solubility ([4]; pH 7.4, aqueous solubility (PBS, pH 7.4), amorphous compounds)
Cc1[nH]c2c(c(=O)c1-c1ccc(Oc3ccc4c(c3)OCO4)cc1)CCCC2 [AS032] | 200 nM | – | – | – | – | –
Cc1[nH]c2c(c(=O)c1-c1ccc(O)cc1)CCCC2 [JAG094] | 1000 nM | – | – | – | – | –
Cc1[nH]c2c(c(=O)c1-c1ccc(Oc3cc(Cl)cc(Cl)c3)cc1)CCC(C)C2 (centres unmarked) [JAG208] | 20 nM | 1000 nM | – | – | – | –
O=c1c2c([nH]c(CO)c1-c1ccc(Oc3ccc(OC(F)(F)F)cc3)cc1)CC(C(F)(F)F)CC2 (centres unmarked) [JAG187] | 2000 nM | – | – | – | – | –
Cc1[nH]c2c(c(=O)c1-c1ccc(Oc3ccc(F)cc3)cc1)CCCC2 [JAG058] | 40 nM | 1000 nM | 0.653 h | 2.38 µM (≈ 0.832 µg/mL) | 4.39 h | –
O=C(O)c1[nH]c2c(c(=O)c1-c1ccc(Oc3ccc(OC(F)(F)F)cc3)cc1)CCCC2 [JAG091] | > 10000 nM | – | – | – | – | –
CCC1CCc2c([nH]c(CO)c(-c3ccc(Oc4ccc(OC(F)(F)F)cc4)cc3)c2=O)C1 (centres unmarked) [JAG174] | 380 nM | – | – | – | – | –
Cc1[nH]c2c(c(=O)c1-c1ccc(Oc3cc(Cl)nc(Cl)c3)cc1)CCCC2 [AS034] | 280 nM | – | 0.415 h | 5.05 µM (≈ 2.03 µg/mL) | – | –
Cc1[nH]c2ccccc2c(=O)c1-c1ccc(Oc2ccccc2)cc1 [MJM129] | 50 nM | > 10000 nM | – | – | – | –
Cc1[nH]c2c(c(=O)c1-c1ccc(Oc3ccc(Cl)c(Cl)c3)cc1)CCCC2 [JAG084] | 55 nM | 1000 nM | 1.05 h | 0.68 µM (≈ 0.272 µg/mL) | – | –
Cc1[nH]c2c(c(=O)c1-c1ccc(Oc3cccc(OC(F)(F)F)c3)cc1)CCCC2 [AS006] | 60 nM | 1000 nM | 0.431 h | 0.55 µM (≈ 0.228 µg/mL) | – | –
CC1CCc2c([nH]c(CO)c(-c3ccc(Oc4ccc(OC(F)(F)F)cc4)cc3)c2=O)C1 (centres unmarked) [JAG193] | 50 nM | – | – | – | – | –
Cc1[nH]c2c(c(=O)c1-c1ccc(Oc3ccc(OC(F)(F)F)cc3)cc1)CC(C)CC2 (centres unmarked) [JAG106] | 2500 nM | – | – | – | – | –
CCOC(=O)Oc1c2c(nc(C)c1-c1ccc(Oc3ccc(OC(F)(F)F)cc3)cc1)CCCC2 [JAG171] | 100 nM | – | – | – | – | –
Cc1[nH]c2cnccc2c(=O)c1-c1ccc(Oc2ccc(OC(F)(F)F)cc2)cc1 [JAG129] | 85 nM | – | – | 5.12 µM (≈ 2.11 µg/mL) | – | –
Cc1[nH]c2c(c(=O)c1-c1ccc(Oc3ccc(OC(F)(F)F)cc3)cc1)CCC(C(F)(F)F)C2 (centres unmarked) [JAG162] | 300 nM | – | 2.41 h | 0.02 µM (≈ 0.00967 µg/mL) | – | –
Cc1[nH]c2c(c(=O)c1-c1ccc(Oc3cccc(Cl)c3)cc1)CCCC2 [JAG062] | 16 nM | 1000 nM | 0.207 h | 0.33 µM (≈ 0.121 µg/mL) | 2.26 h | –
Cc1[nH]c2c(c(=O)c1-c1ccc(Oc3cccc(C(F)(F)F)c3)cc1)CCCC2 [AS012] | 260 nM | – | 0.501 h | 2.19 µM (≈ 0.875 µg/mL) | – | –
CCC1CCc2c([nH]c(C)c(-c3ccc(Oc4ccc(OC(F)(F)F)cc4)cc3)c2=O)C1 (centres unmarked) [JAG121] | 55 nM | – | 1.05 h | 0.16 µM (≈ 0.071 µg/mL) | – | –
Cc1[nH]c2ccccc2c(=O)c1-c1ccc(Oc2ccc(OC(F)(F)F)cc2)cc1 [ELQ271, reference compound] | 30 nM | 5000 nM | 7.47 h | – | – | 0.2 µM (≈ 0.0823 µg/mL)
Cc1[nH]c2c(c(=O)c1-c1ccc(Oc3ccc(OC(F)(F)F)cc3)cc1)CC(C(F)(F)F)CC2 (centres unmarked) [JAG100] | > 10000 nM | – | – | – | – | –
Cc1[nH]c2c(c(=O)c1-c1ccc(Oc3ccc(C(F)(F)F)cc3)cc1)CCCC2 [JAG063] | 200 nM | – | 2.12 h | 0.45 µM (≈ 0.18 µg/mL) | 8.94 h | –
Cc1[nH]c2c(c(=O)c1-c1ccc(Oc3cccc(F)c3)cc1)CCCC2 [JAG069] | 30 nM | 1000 nM | 0.29 h | 0.5 µM (≈ 0.175 µg/mL) | 3.37 h | –
Cc1[nH]c2c(c(=O)c1-c1ccc(Oc3ccc(OC(F)(F)F)cc3)cc1)CCC(C)C2 (centres unmarked) [JAG107] | 50 nM | – | 1.87 h | 0.03 µM (≈ 0.0129 µg/mL) | – | –
Cc1[nH]c2c(c(=O)c1-c1ccc(Oc3ccc(F)c(Cl)c3)cc1)CCCC2 [AS021] | 65 nM | 1000 nM | 0.685 h | 2 µM (≈ 0.768 µg/mL) | – | –
Cc1[nH]c2ccnn2c(=O)c1-c1ccc(Oc2ccc(OC(F)(F)F)cc2)cc1 [MJM141] | 8200 nM | 10000 nM | – | 0.94 µM (≈ 0.377 µg/mL) | 4.64 h | –
Cc1[nH]c2c(c(=O)c1-c1ccc(Oc3cc(Cl)cc(Cl)c3)cc1)CCCC2 [AS022] | 30 nM | 1000 nM | 0.477 h | 6.25 µM (≈ 2.5 µg/mL) | – | –
Cc1c(-c2ccc(Oc3ccc(OC(F)(F)F)cc3)cc2)c(=O)c2c(n1C)CCCC2 [JAG023] | 800 nM | – | – | – | – | –
